ChEMBL document CHEMBL1201862, “PubChem BioAssay data set” (2004)
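Cultured in 96-well plates, cells were exposed to test compound for 48 hours across five concentrations. GI50 marks 50% less growth.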 Active and inactive are the calls of the source. Rule as the data show it: active = GI50 up to about 1.1 µM and inactive = higher.

Assays:
Assay in all cases: inhibition of tumour cell growth, NCI panel, 48 h
[1] = test system: 786-0
[2] = test system: A549
[3] = test system: BT-549
[4] = test system: CAKI-1
[5] = test system: CCRF-CEM
[6] = test system: COLO 205
[7] = test system: DU-145
[8] = test system: EKVX
[9] = test system: HCT-116
[10] = test system: HCT-15
[11] = test system: HL-60
[12] = test system: HOP-62
[13] = test system: HT-29
[14] = test system: Hs-578T
[15] = test system: IGROV-1
[16] = test system: K562
[17] = test system: KM12
[18] = test system: LOX IMVI
[19] = test system: M14
[20] = test system: MCF7
[21] = test system: MDA-MB-231
[22] = test system: MDA-MB-435
[23] = test system: MOLT-4
[24] = test system: Malme-3M
[25] = test system: NCI-H226
[26] = test system: NCI-H23
[27] = test system: NCI-H522
[28] = test system: NCI/ADR-RES
[29] = test system: OVCAR-3
[30] = test system: OVCAR-4
[31] = test system: OVCAR-5
[32] = test system: OVCAR-8
[33] = test system: PC-3
[34] = test system: RPMI-8226
[35] = test system: RXF 393
[36] = test system: SF-268
[37] = test system: SF-295
[38] = test system: SK-MEL-28
[39] = test system: SK-MEL-2
[40] = test system: SK-MEL-5
[41] = test system: SK-OV-3
[42] = test system: SN12C
[43] = test system: SNB-19
[44] = test system: SNB-75
[45] = test system: SW-620
[46] = test system: T47D
[47] = test system: TK-10
[48] = test system: U-251
[49] = test system: UACC-257
[50] = test system: UACC-62
[51] = test system: UO-31
[52] = test system: A498
[53] = test system: ACHN
[54] = test system: HCC 2998
[55] = test system: HOP-92
[56] = test system: MDA-N
[57] = test system: NCI-H460
[58] = test system: SF-539
[59] = test system: SR

Question: With `Cc1ccc2c(=O)cc(Cc3cccs3)[nH]c2n1` as the compound, how does the GI50 [1] read?
Answer: > 100 µM (inactive)

Question: What about the GI50 [2] of the same compound?
Answer: > 100 µM (inactive)

Question: What about the GI50 [3] of the same compound?
Answer: > 100 µM (inactive)

Question: What about the GI50 [4] of the same compound?
Answer: > 100 µM (inactive)

Question: What about the GI50 [5] of the same compound?
Answer: > 100 µM (inactive)

Question: And the GI50 [6]?
Answer: > 100 µM (inactive)

Question: What about the GI50 [7] of the same compound?
Answer: > 100 µM (inactive)

Question: And the GI50 [8]?
Answer: > 100 µM (inactive)

Question: What about the GI50 [9] of the same compound?
Answer: > 100 µM (inactive)

Question: And the GI50 [10]?
Answer: > 100 µM

Question: And the GI50 [11]?
Answer: > 100 µM (inactive)

Question: What about the GI50 [12] of the same compound?
Answer: > 100 µM (inactive)

Question: And the GI50 [13]?
Answer: > 100 µM (inactive)

Question: And the GI50 [14]?
Answer: > 100 µM (inactive)

Question: And the GI50 [15]?
Answer: > 100 µM (inactive)

Question: And the GI50 [16]?
Answer: > 100 µM (inactive)

Question: And the GI50 [17]?
Answer: > 100 µM (inactive)

Question: What about the GI50 [18] of the same compound?
Answer: > 100 µM (inactive)

Question: What about the GI50 [19] of the same compound?
Answer: > 100 µM (inactive)

Question: And the GI50 [20]?
Answer: > 100 µM (inactive)

Question: And the GI50 [21]?
Answer: > 100 µM (inactive)

Question: And the GI50 [22]?
Answer: > 100 µM (inactive)

Question: What about the GI50 [23] of the same compound?
Answer: > 100 µM (inactive)

Question: What about the GI50 [24] of the same compound?
Answer: > 100 µM (inactive)

Question: What about the GI50 [25] of the same compound?
Answer: > 100 µM (inactive)

Question: What about the GI50 [26] of the same compound?
Answer: > 100 µM (inactive)

Question: And the GI50 [27]?
Answer: > 100 µM (inactive)

Question: What about the GI50 [28] of the same compound?
Answer: > 100 µM (inactive)

Question: What about the GI50 [29] of the same compound?
Answer: > 100 µM (inactive)

Question: And the GI50 [30]?
Answer: > 100 µM (inactive)

Question: And the GI50 [31]?
Answer: > 100 µM (inactive)

Question: What about the GI50 [32] of the same compound?
Answer: > 100 µM (inactive)

Question: And the GI50 [33]?
Answer: > 100 µM (inactive)

Question: And the GI50 [34]?
Answer: > 100 µM (inactive)

Question: And the GI50 [35]?
Answer: > 100 µM (inactive)

Question: And the GI50 [36]?
Answer: > 100 µM (inactive)

Question: And the GI50 [37]?
Answer: > 100 µM (inactive)

Question: What about the GI50 [38] of the same compound?
Answer: > 100 µM (inactive)

Question: And the GI50 [39]?
Answer: > 100 µM (inactive)

Question: What about the GI50 [40] of the same compound?
Answer: > 100 µM (inactive)

Question: And the GI50 [41]?
Answer: > 100 µM (inactive)

Question: What about the GI50 [42] of the same compound?
Answer: > 100 µM (inactive)

Question: And the GI50 [43]?
Answer: > 100 µM (inactive)

Question: What about the GI50 [44] of the same compound?
Answer: 95.5 µM (inactive)

Question: And the GI50 [45]?
Answer: > 100 µM (inactive)

Question: And the GI50 [46]?
Answer: > 100 µM (inactive)

Question: And the GI50 [47]?
Answer: > 100 µM (inactive)

Question: And the GI50 [48]?
Answer: > 100 µM (inactive)

Question: And the GI50 [49]?
Answer: > 100 µM (inactive)

Question: What about the GI50 [50] of the same compound?
Answer: > 100 µM (inactive)

Question: And the GI50 [51]?
Answer: > 100 µM (inactive)

Question: How did the GI50 [1] turn out when `COCN1C(=O)[C@@H]2CCCN2C(=O)c2ccc(N)cc21` was run?
Answer: > 100 µM (inactive)

Question: What about the GI50 [52] of the same compound?
Answer: > 100 µM (inactive)

Question: What about the GI50 [2] of the same compound?
Answer: > 100 µM (inactive)

Question: And the GI50 [53]?
Answer: > 100 µM (inactive)

Question: And the GI50 [3]?
Answer: > 100 µM (inactive)

Question: What about the GI50 [4] of the same compound?
Answer: > 100 µM (inactive)

Question: What about the GI50 [5] of the same compound?
Answer: > 100 µM (inactive)

Question: And the GI50 [6]?
Answer: > 100 µM (inactive)

Question: And the GI50 [7]?
Answer: > 100 µM (inactive)

Question: What about the GI50 [8] of the same compound?
Answer: > 100 µM (inactive)

Question: What about the GI50 [54] of the same compound?
Answer: > 100 µM (inactive)

Question: And the GI50 [9]?
Answer: > 100 µM (inactive)

Question: What about the GI50 [10] of the same compound?
Answer: > 100 µM

Question: What about the GI50 [11] of the same compound?
Answer: > 100 µM (inactive)

Question: And the GI50 [12]?
Answer: > 100 µM (inactive)

Question: What about the GI50 [55] of the same compound?
Answer: > 100 µM (inactive)

Question: And the GI50 [13]?
Answer: > 100 µM (inactive)

Question: And the GI50 [14]?
Answer: > 100 µM (inactive)

Question: What about the GI50 [15] of the same compound?
Answer: > 100 µM (inactive)

Question: And the GI50 [16]?
Answer: > 100 µM (inactive)

Question: And the GI50 [17]?
Answer: > 100 µM (inactive)

Question: What about the GI50 [18] of the same compound?
Answer: > 100 µM (inactive)

Question: And the GI50 [19]?
Answer: > 100 µM (inactive)

Question: And the GI50 [20]?
Answer: > 100 µM (inactive)

Question: What about the GI50 [21] of the same compound?
Answer: > 100 µM (inactive)

Question: And the GI50 [22]?
Answer: > 100 µM (inactive)

Question: And the GI50 [56]?
Answer: > 100 µM (inactive)

Question: And the GI50 [23]?
Answer: > 100 µM (inactive)

Question: What about the GI50 [25] of the same compound?
Answer: > 100 µM (inactive)

Question: What about the GI50 [26] of the same compound?
Answer: > 100 µM (inactive)

Question: And the GI50 [57]?
Answer: > 100 µM (inactive)

Question: What about the GI50 [27] of the same compound?
Answer: > 100 µM (inactive)

Question: What about the GI50 [28] of the same compound?
Answer: > 100 µM (inactive)

Question: And the GI50 [29]?
Answer: > 100 µM (inactive)

Question: What about the GI50 [30] of the same compound?
Answer: > 100 µM (inactive)

Question: And the GI50 [31]?
Answer: > 100 µM (inactive)

Question: And the GI50 [32]?
Answer: > 100 µM (inactive)

Question: And the GI50 [33]?
Answer: > 100 µM (inactive)

Question: And the GI50 [34]?
Answer: > 100 µM (inactive)

Question: What about the GI50 [35] of the same compound?
Answer: > 100 µM (inactive)

Question: What about the GI50 [36] of the same compound?
Answer: > 100 µM (inactive)

Question: And the GI50 [37]?
Answer: > 100 µM (inactive)

Question: And the GI50 [58]?
Answer: > 100 µM (inactive)

Question: What about the GI50 [38] of the same compound?
Answer: > 100 µM (inactive)

Question: What about the GI50 [39] of the same compound?
Answer: > 100 µM (inactive)

Question: What about the GI50 [40] of the same compound?
Answer: > 100 µM (inactive)

Question: And the GI50 [41]?
Answer: > 100 µM (inactive)

Question: What about the GI50 [42] of the same compound?
Answer: > 100 µM (inactive)

Question: What about the GI50 [43] of the same compound?
Answer: > 100 µM (inactive)

Question: And the GI50 [44]?
Answer: > 100 µM (inactive)

Question: What about the GI50 [59] of the same compound?
Answer: > 100 µM (inactive)

Question: What about the GI50 [45] of the same compound?
Answer: > 100 µM (inactive)

Question: What about the GI50 [47] of the same compound?
Answer: > 100 µM (inactive)

Question: What about the GI50 [48] of the same compound?
Answer: > 100 µM (inactive)

Question: What about the GI50 [49] of the same compound?
Answer: > 100 µM (inactive)

Question: And the GI50 [50]?
Answer: > 100 µM (inactive)

Question: And the GI50 [51]?
Answer: > 100 µM (inactive)
